Measurements as given in patent US5143910A, “Piperaziniocephalosporins” (Shionogi & Co., Ltd., priority 1989, dated 1992).
≈ marks a conversion by molar mass, not a printed value. Read-outs that look alike come from different tables or passages of the source.

Columns and labels:
[1] = tested on: Pseudomonas aeruginosa ATCC 25619; test: MIC on agar plate by two fold dilution (Japan Society of Chemotherapy) against Pseudomonas aeruginosa ATCC 25619; assay type: cell-based; details: ATCC25619, P. aeruginosa ATCC 25619, in 0.01N-sodium hydrogen carbonate, read-out: minimal inhibitory concentration (MIC)
Excerpt: By altering the groups with the followings, the activity varied as below (AT=2-amino-4-thiazolyl).

[2] = tested on: Serratia marcescens A 13880; test: ED50 against Serratia marcescens A 13880; assay type: in vivo; details: A13880, mouse
[3] = safety test, intravenous injection, rabbit; assay type: in vivo; details: dose up to 1 g/kg
Enterobacter cloacae = test: antibacterial activity against clinically isolated Enterobacter cloacae; assay type: cell-based
[4] = tested on: Pseudomonas aeruginosa SR 4967; test: ED50 against Pseudomonas aeruginosa SR 4967; assay type: in vivo; details: SR4967, mouse
[5] = tested on: Pseudomonas aeruginosa SR 5018; test: MIC against ofloxacin resistant Pseudomonas aeruginosa SR 5018; assay type: cell-based
[6] = tested on: Pseudomonas aeruginosa SR 24; test: MIC against Pseudomonas aeruginosa SR 24; assay type: cell-based; details: SR24
[7] = safety test, intravenous injection, mouse; assay type: in vivo; details: dose up to 1 g/kg
[8] = antibacterial activity against clinically isolated Clostridium freundii; assay type: cell-based
[9] = urinary and bile juice recovery after subcutaneous injection; assay type: in vivo; details: urine and bile, sc; during 2 hours after subcutaneous injection (20 mg/kg); read-out: urinary and bile juice recovery (total)
[10] = tested on: Pseudomonas aeruginosa SR 24; test: 50% effective dose for preventing mouse from death caused by Pseudomonas aeruginosa SR 24; assay type: in vivo
Description: The 50% effective dose of compound (I) where R^1 is 2-(2-amino-4-thiazolyl)-2-(1-carboxy-1-methylethoxy)imino-acetamido, R^2 is hydrogen, R^3 is methyl, R^4 R^5 is 3,4-dihydroxybenzoyl, R^6 combined with Y^- is a negative charge, X is sulfur for preventing mouse from the death caused by Pseudomonas aeruginose SR 24 is 1.25 mg/kg.

Morgania morganii = test: antibacterial activity against clinically isolated Morgania morganii; assay type: cell-based

In the case of CO[C@@]1(NC(=O)CSC(F)F)C(=O)N2C(C(=O)[O-])=C(C[N+]3(C)CCN(C(=O)c4ccc(O)c(O)c4)CC3)CO[C@@H]21 [No. 1], the MIC [1] is reported as > 100 µg/mL.

With C[N+]1(CC2=C(C(=O)[O-])N3C(=O)[C@@H](NC(=O)Cc4ccccc4)[C@H]3SC2)CCN(C(=O)c2ccc(O)c(O)c2)CC1 [No. 2] the MIC [1] was > 100 µg/mL.

With CO/N=C(\C(=O)N[C@@H]1C(=O)N2C(C(=O)[O-])=C(C[N+]3(C)CCN(C(=O)c4ccc(O)c(O)c4)CC3)CS[C@H]12)c1csc(N)n1 [No. 3] the MIC [1] was 0.05 µg/mL (≈ 0.0792 µM).

Molecule CO/N=C(\C(=O)N[C@@H]1C(=O)N2C(C(=O)[O-])=C(C[N+]3(C)CCN(CC(=O)c4ccc(O)c(O)c4)CC3)CS[C@H]12)c1csc(N)n1 [No. 6] has an MIC [1] of 0.05 µg/mL (≈ 0.0774 µM).

For CC(C)(O/N=C(\C(=O)N[C@@H]1C(=O)N2C(C(=O)[O-])=C(C[N+]3(C)CCN(C(=O)c4ccc(O)c(O)c4)CC3)CS[C@H]12)c1csc(N)n1)C(=O)O [No. 8, 7β-[2-(2-amino-4-thiazolyl)-2-(1-carboxy-1-methylethoxyimino)acetamido]-3-[4-(3,4-dihydroxybenzoyl)-1-methylpiperazinio-1-yl]methyl-3-cephem-4-carboxylate], the ED50 [2] was 0.28 mg/kg, the death [3] was “did not show death” and the antibacterial activity (Enterobacter cloacae) was “high antibacterial activity”. The ED50 [4] was 4.91 mg/kg, the MIC ([5]; SR5018, ofloxacin resistant Pseudomonas aeruginosa SR 5018) was 0.05 µg/mL (≈ 0.071 µM) and the “times more potent (MIC) than BO-1341” value ([5]; vs 0.4 γ/ml of BO-1341, P. aeruginosa SR 5018) was 8 times. For the same molecule, the “times more potent (MIC) than E-1040” value ([5]; vs 6.3 γ/ml of E-1040, P. aeruginosa SR 5018) was 126 times, the “times more potent (MIC) than ceftazidime” value ([5]; vs 25 γ/ml of ceftazidime, P. aeruginosa SR 5018) was 500 times and the MIC [6] was 0.1 µg/mL (≈ 0.142 µM). For the same molecule, the death [7] was “did not show death”, the antibacterial activity [8] was “high antibacterial activity” and the dose excreted at 2 h [9] was 70.4%. The ED50 ([10]; Pseudomonas aeruginosa, SR24, read-out: 50% effective dose for preventing mouse from death) was 1.25 mg/kg, the ED50 ([10]; SR24, mouse, Pseudomonas aeruginosa SR 24, read-out: ED50 (mouse)) was 1.41 mg/kg and the “times more potent (ED50) than reference 3-(3,4-dihydroxybenzyl) compound” value ([10]; vs 3.4 mg/kg of the reference, P. aeruginosa SR 24) was 2.4 times. For the same molecule, the “times more potent (ED50) than reference 3-(dihydroxyphenylthiadiazolylthio)methyl compound” value ([10]; vs 16.3 mg/kg of the reference, P. aeruginosa SR 24) was 11.6 times and the antibacterial activity (Morgania morganii) was “high antibacterial activity”.

With CC(C)(O/N=C(\C(=O)N[C@@H]1C(=O)N2C(C(=O)[O-])=C(C[N+]3(C)CCN(C(=O)c4ccc(O)c(O)c4Cl)CC3)CS[C@H]12)c1csc(N)n1)C(=O)O [No. 9, 7β-[2-(2-aminothiazol-4-yl)-2-(1-carboxy-1-methylethoxyimino)acetamido]-3-[4-(2-chloro-3,4-dihydroxybenzoyl)-1-methylpiperazinio-1-yl]methyl-3-cephem-4-carboxylate] the MIC [1] was 0.02 µg/mL (≈ 0.0271 µM).

CC(C)(O/N=C(\C(=O)N[C@@H]1C(=O)N2C(C(=O)[O-])=C(C[N+]3(C)CCN(C(=O)c4cc(O)c(O)c(Cl)c4)CC3)CS[C@H]12)c1csc(N)n1)C(=O)O [No. 11] showed an MIC [1] of 0.02 µg/mL (≈ 0.0271 µM).

CC(C)(O/N=C(\C(=O)N[C@@H]1C(=O)N2C(C(=O)[O-])=C(C[N+]3(C)CCN(C(=O)c4cc(O)c(O)cc4Cl)CC3)CS[C@H]12)c1csc(N)n1)C(=O)O [No. 12] showed an MIC [1] of 0.02 µg/mL (≈ 0.0271 µM).

Molecule CC(C)(O/N=C(\C(=O)N[C@@H]1C(=O)N2C(C(=O)[O-])=C(C[N+]3(C)CCN(C(=O)c4cc(Cl)c(O)c(O)c4Cl)CC3)CS[C@H]12)c1csc(N)n1)C(=O)O [No. 13] has an MIC [1] of 0.02 µg/mL (≈ 0.0259 µM).

COc1cc(C(=O)N2CC[N+](C)(CC3=C(C(=O)[O-])N4C(=O)[C@@H](NC(=O)C(=NOC(C)(C)C(=O)O)c5csc(N)n5)[C@H]4SC3)CC2)ccc1O [No. 14] gave an MIC [1] of 3.1 µg/mL (≈ 4.32 µM).

With CC(C)(O/N=C(\C(=O)N[C@@H]1C(=O)N2C(C(=O)[O-])=C(C[N+]3(C)CCN(Cc4ccc(O)c(O)c4)CC3)CS[C@H]12)c1csc(N)n1)C(=O)O [No. 15] the MIC [1] was 0.1 µg/mL (≈ 0.145 µM).

Work on C=C(O/N=C(\C(=O)N[C@@H]1C(=O)N2C(C(=O)[O-])=C(C[N+]3(C)CCN(C(=O)c4ccc(O)c(O)c4)CC3)CS[C@H]12)c1csc(N)n1)C(=O)O [No. 17] yielded an MIC [1] of 0.05 µg/mL (≈ 0.0727 µM).
